Reference: the supplement of paper PMC6045584
± gives the standard deviation of the averaged measurements.

What was measured:
[1] = compound: CC(=O)c1c(C)c2cnc(Nc3ccc(N4CCNCC4)cn3)nc2n(C2CCCC2)c1=O; test: surviving fraction relative to DMSO-only wells; higher = less growth inhibition; settings: exposure time: 5 days
How it was run: (§1)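 Tumour cell lines in log phase were plated in 384-well plates at 250–500 cells per well, then, after 24 hours, exposed continuously for five days to inhibitors at 0.5, 1, 5, 10, 50, 100, 500 and 1000 nM. Viability came from CellTiter-Glo luminescence, and surviving fraction is that signal normalised to the median of DMSO-only wells. Plates were read after 10 minutes at room temperature, and each line, screened three times, was kept only when replicate Pearson r was >0.7 and median Z' was >0.3.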

OSI-906 = compound: C[C@]1(O)C[C@@H](c2nc(-c3ccc4ccc(-c5ccccc5)nc4c3)c3c(N)nccn32)C1 [OSI-906]; test: as above; settings: exposure time: 5 days
How it was run: as §1

Row | Test System | surviving fraction ([1]; 0.5 nM) | surviving fraction ([1]; 1 nM) | surviving fraction ([1]; 5 nM) | surviving fraction ([1]; 10 nM) | surviving fraction ([1]; 50 nM) | surviving fraction ([1]; 100 nM) | surviving fraction ([1]; 500 nM) | surviving fraction ([1]; 1000 nM) | surviving fraction (OSI-906; 0.5 nM) | surviving fraction (OSI-906; 1 nM) | surviving fraction (OSI-906; 5 nM) | surviving fraction (OSI-906; 10 nM) | surviving fraction (OSI-906; 50 nM) | surviving fraction (OSI-906; 100 nM) | surviving fraction (OSI-906; 500 nM) | surviving fraction (OSI-906; 1000 nM)
1 | YAMATO SYNOVIAL | 1.2 ± 0.07 | 1.14 ± 0.065 | 1.28 ± 0.11 | 1.23 ± 0.14 | 1.3 ± 0.061 | 1.25 ± 0.047 | 0.984 ± 0.034 | 0.935 ± 0.056 | 0.866 ± 0.13 | 0.936 ± 0.04 | 0.995 ± 0.069 | 0.986 ± 0.082 | 1.36 ± 0.22 | 1.46 ± 0.13 | 1.17 ± 0.21 | 1.12 ± 0.077
2 | MDAMB361 BREAST | 0.924 ± 0.046 | 0.861 ± 0.13 | 0.882 ± 0.09 | 0.825 ± 0.053 | 0.881 ± 0.083 | 0.86 ± 0.032 | 0.861 ± 0.23 | 0.866 ± 0.021 | 0.669 ± 0.025 | 0.682 ± 0.024 | 0.721 ± 0.04 | 0.741 ± 0.061 | 0.847 ± 0.067 | 0.842 ± 0.011 | 0.758 ± 0.015 | 0.797 ± 0.033
3 | KPD BONE | 0.924 ± 0.081 | 0.939 ± 0.029 | 1.04 ± 0.05 | 0.961 ± 0.027 | 0.99 ± 0.069 | 0.993 ± 0.072 | 0.775 ± 0.026 | 0.679 ± 0.041 | 0.958 ± 0.037 | 0.978 ± 0.051 | 0.9457 ± 0.0072 | 0.952 ± 0.097 | 0.796 ± 0.018 | 0.557 ± 0.021 | 0.112 ± 0.0049 | 0.081 ± 0.019
4 | CADOES1 SOFT TISSUE | 0.962 ± 0.048 | 0.897 ± 0.11 | 0.821 ± 0.078 | 0.883 ± 0.13 | 0.83 ± 0.053 | 0.921 ± 0.039 | 0.726 ± 0.011 | 0.704 ± 0.048 | 1.025 ± 0.0076 | 1.04 ± 0.024 | 0.957 ± 0.096 | 1.02 ± 0.036 | 0.847 ± 0.14 | 0.886 ± 0.1 | 0.871 ± 0.059 | 0.962 ± 0.023
5 | DU4475 BREAST | 1.11 ± 0.15 | 1.23 ± 0.076 | 1.08 ± 0.17 | 1.08 ± 0.31 | 1.03 ± 0.3 | 0.997 ± 0.36 | 1.02 ± 0.32 | 0.951 ± 0.32 | 0.863 ± 0.18 | 0.825 ± 0.18 | 0.726 ± 0.089 | 0.786 ± 0.12 | 0.785 ± 0.18 | 0.553 ± 0.043 | 0.41 ± 0.024 | 0.36 ± 0.08
6 | HMT3552 BREAST | 1.05 | 1.05 | 0.895 | 0.991 | 1.31 | 1.25 | 1.17 | 1.19 | 0.916 ± 0.058 | 0.942 ± 0.017 | 0.988 ± 0.057 | 0.937 ± 0.064 | 1.05 ± 0.05 | 0.954 ± 0.023 | 0.828 ± 0.073 | 0.748 ± 0.035
7 | LM7 BONE | 0.997 ± 0.1 | 0.98 ± 0.14 | 1.108 ± 0.011 | 1.05 ± 0.032 | 1.06 ± 0.093 | 1.09 ± 0.046 | 0.999 ± 0.12 | 1.02 ± 0.0049 | 0.743 ± 0.037 | 0.717 ± 0.062 | 0.801 ± 0.074 | 0.747 ± 0.041 | 0.867 ± 0.011 | 0.771 ± 0.048 | 0.48 ± 0.023 | 0.435 ± 0.025
8 | VCAP PROSTATE | 1.08 ± 0.018 | 1.08 ± 0.025 | 1.14 ± 0.076 | 1.17 ± 0.053 | 1.1 ± 0.13 | 1.18 ± 0.025 | 0.829 ± 0.11 | 0.773 ± 0.0044 | 0.908 ± 0.023 | 0.867 ± 0.039 | 0.962 ± 0.028 | 0.999 ± 0.14 | 0.942 ± 0.16 | 0.83 ± 0.064 | 0.399 ± 0.046 | 0.188 ± 0.029
9 | HOS BONE | 1.02 ± 0.068 | 1.03 ± 0.021 | 1.01 ± 0.022 | 1.04 ± 0.034 | 1.114 ± 0.0042 | 1.07 ± 0.06 | 1.05 ± 0.016 | 1.08 ± 0.057 | 0.9287 ± 0.0055 | 0.9223 ± 0.0065 | 0.939 ± 0.019 | 0.911 ± 0.014 | 0.965 ± 0.02 | 0.963 ± 0.013 | 0.901 ± 0.013 | 0.88 ± 0.031
10 | HS57T BREAST | 1.02 ± 0.025 | 1.08 ± 0.097 | 1.11 ± 0.052 | 1.1 ± 0.031 | 1.16 ± 0.043 | 1.11 ± 0.032 | 0.954 ± 0.055 | 0.96 ± 0.039 | 0.862 ± 0.014 | 0.89 ± 0.068 | 0.869 ± 0.047 | 0.902 ± 0.052 | 0.934 ± 0.032 | 0.881 ± 0.023 | 0.915 ± 0.047 | 0.826 ± 0.082
11 | MDAMB453 BREAST | 1.05 ± 0.018 | 1.04 ± 0.043 | 1.07 ± 0.026 | 1.11 ± 0.044 | 1.15 ± 0.1 | 1.11 ± 0.061 | 1 ± 0.026 | 1.01 ± 0.071 | 1.03 ± 0.03 | 1.03 ± 0.016 | 1.077 ± 0.0087 | 1.06 ± 0.021 | 1.06 ± 0.051 | 1.04 ± 0.014 | 1.02 ± 0.042 | 0.98 ± 0.035
